Source: patent US20250313535A1, “ALPHA 4 BETA 7 INTEGRIN MODULATORS AND USES THEREOF” (DICE MOLECULES SV, INC., priority 2022, published 2025)

Tests used:
α4β1 integrin = α4β1 integrin (Homo sapiens (Human), UniProt P05556+P13612); test: Integrin Adhesion Assay: Protocol 5 (VCAM-coated plate, RPMI-8866 cells with stable LOF mutation of the ITGB7 gene); type: cell-based; settings: RPMI-8866 cells with stable LOF mutation of the ITGB7 gene; read-out: Mean IC50 α4β1 KO^b
Outline: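 RPMI-8866 B cells with CRISPR/Cas9 ITGB7 knockout (clonal, verified by flow cytometry) adhered to VCAM-coated wells for 1 h at 37° C in HEPES/NaCl buffer with 1 mM MnCl2, 0.1 mM CaCl2, 1% BSA, 1% DMSO. Bound cells quantified by CellTiter-Glo luminescence after washing; % inhibition versus DMSO and control, 4-parameter fit.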

α4β7 integrin = α4β7 integrin (Homo sapiens (Human), UniProt P13612+P26010); test: Integrin Adhesion Assay: Protocol 4 (MAdCAM-coated plate, RPMI-8866 cells with stable LOF mutation of the ITGB1 gene); type: cell-based; settings: RPMI-8866 cells with stable LOF mutation of the ITGB1 gene; read-out: Mean IC50 α4β7 KO^a
Outline: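 RPMI-8866 cells with CRISPR/Cas9 knockout of ITGB1 (2×10^6/mL) were added to MAdCAM-coated wells with compound (1% DMSO) in HEPES/NaCl buffer with 1 mM MnCl2, 0.1 mM CaCl2 and 1% BSA, then incubated 1 h at 37 °C. After four washes, adherent cells were quantified by CellTiter-Glo luminescence. Percent inhibition versus DMSO and control compound was fitted to 4-parameter curves.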

α4β1 integrin, sequence (P13612 34-1032): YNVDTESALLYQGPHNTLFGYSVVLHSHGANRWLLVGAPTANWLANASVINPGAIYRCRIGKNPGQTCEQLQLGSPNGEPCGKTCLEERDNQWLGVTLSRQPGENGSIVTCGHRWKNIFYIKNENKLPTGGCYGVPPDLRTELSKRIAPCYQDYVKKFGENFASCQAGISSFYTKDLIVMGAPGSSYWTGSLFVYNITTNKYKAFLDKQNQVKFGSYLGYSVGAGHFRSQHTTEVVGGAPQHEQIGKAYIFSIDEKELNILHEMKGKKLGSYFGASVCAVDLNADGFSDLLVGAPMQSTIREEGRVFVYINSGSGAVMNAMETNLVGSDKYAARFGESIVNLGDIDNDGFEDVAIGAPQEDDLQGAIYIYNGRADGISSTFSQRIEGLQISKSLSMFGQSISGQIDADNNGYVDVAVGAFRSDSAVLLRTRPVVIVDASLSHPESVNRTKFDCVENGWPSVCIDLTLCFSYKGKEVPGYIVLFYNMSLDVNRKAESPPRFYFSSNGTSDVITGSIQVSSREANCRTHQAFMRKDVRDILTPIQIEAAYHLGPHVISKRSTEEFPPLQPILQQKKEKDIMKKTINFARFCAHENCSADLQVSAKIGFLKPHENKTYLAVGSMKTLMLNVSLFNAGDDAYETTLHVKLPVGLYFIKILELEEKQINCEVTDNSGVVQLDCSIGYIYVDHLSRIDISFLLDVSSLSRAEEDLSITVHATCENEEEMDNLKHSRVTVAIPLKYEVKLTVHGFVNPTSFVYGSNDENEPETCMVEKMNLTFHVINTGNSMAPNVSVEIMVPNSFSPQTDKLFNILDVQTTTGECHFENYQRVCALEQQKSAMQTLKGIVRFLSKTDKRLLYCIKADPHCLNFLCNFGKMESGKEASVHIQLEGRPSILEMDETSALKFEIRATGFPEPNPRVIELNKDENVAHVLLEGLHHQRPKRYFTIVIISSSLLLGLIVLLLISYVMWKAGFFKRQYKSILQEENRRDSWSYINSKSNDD
α4β1 integrin, sequence (P05556 21-798): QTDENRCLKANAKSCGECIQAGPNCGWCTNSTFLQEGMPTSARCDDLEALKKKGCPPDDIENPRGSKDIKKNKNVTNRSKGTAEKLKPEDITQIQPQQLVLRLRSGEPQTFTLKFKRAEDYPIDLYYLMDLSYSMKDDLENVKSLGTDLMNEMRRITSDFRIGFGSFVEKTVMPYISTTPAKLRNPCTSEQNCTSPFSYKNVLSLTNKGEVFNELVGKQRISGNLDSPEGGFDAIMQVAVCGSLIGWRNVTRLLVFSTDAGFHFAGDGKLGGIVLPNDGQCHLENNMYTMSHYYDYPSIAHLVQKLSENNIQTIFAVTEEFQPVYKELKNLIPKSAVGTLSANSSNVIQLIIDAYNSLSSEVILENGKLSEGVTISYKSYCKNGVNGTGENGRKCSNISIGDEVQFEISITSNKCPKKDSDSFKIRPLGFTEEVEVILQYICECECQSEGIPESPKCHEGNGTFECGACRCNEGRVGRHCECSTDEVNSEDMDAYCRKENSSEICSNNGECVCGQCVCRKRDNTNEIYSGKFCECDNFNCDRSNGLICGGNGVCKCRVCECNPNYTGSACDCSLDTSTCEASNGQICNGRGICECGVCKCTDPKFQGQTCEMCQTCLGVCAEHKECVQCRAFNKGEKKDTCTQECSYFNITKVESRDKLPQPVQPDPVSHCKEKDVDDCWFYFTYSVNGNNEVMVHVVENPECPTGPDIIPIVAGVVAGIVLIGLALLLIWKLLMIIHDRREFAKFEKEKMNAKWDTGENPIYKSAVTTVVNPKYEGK
α4β7 integrin, sequence (P13612 34-1032): as the sequence (P13612 34-1032) above
α4β7 integrin, sequence (P26010 20-798): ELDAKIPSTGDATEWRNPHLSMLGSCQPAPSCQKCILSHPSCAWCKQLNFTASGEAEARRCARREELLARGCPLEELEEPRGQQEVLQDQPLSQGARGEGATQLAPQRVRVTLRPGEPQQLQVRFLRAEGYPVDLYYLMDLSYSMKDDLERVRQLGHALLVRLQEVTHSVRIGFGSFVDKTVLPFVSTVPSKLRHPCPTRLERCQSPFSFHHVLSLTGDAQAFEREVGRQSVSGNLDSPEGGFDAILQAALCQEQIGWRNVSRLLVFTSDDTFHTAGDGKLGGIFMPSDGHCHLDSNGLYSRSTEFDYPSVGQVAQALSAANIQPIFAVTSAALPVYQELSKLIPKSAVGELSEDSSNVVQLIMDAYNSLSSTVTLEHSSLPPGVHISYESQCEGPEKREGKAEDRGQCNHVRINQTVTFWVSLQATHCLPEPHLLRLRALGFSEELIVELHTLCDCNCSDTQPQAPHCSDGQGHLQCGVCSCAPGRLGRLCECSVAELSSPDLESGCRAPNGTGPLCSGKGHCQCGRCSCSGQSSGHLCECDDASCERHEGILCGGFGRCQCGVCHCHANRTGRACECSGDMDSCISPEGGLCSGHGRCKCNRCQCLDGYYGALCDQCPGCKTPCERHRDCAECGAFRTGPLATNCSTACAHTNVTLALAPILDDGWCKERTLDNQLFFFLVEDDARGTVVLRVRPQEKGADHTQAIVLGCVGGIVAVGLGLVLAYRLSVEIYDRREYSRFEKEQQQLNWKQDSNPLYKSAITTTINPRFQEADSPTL

| Compound | IC50 (α4β1 integrin) [nM] | IC50 (α4β7 integrin) [nM] |
| --- | --- | --- |
| CC(N1CCC(C(=O)N[C@@H](Cc2cccc3c(-c4c(C(F)(F)F)c5ccccc5n(C)c4=O)cccc23)C(=O)O)(C(F)(F)F)CC1)C(F)(F)F (stereo partly shown) [Compound 515] | > 1000 | 100 to 1000 |
| Cn1c(=O)c(-c2cccc3c(C[C@H](NC(=O)C4(C(F)(F)F)CCN(C(c5ccccc5)C(F)(F)F)CC4)C(=O)O)cccc23)c(C(F)(F)F)c2ccccc21 (stereo partly shown) [Compound 516] | > 1000 | > 1000 |
| Cc1cccc(F)c1C(=O)N[C@@H](Cc1cccc2c(-c3c(C(F)(F)F)c4cc(CCN5CC(F)C5)ccc4n(C)c3=O)cccc12)C(=O)O [Compound 517] | > 1000 | < 10 |
| CC[C@H](N1CCC(C(=O)N[C@@H](Cc2cccc3c(-c4c(C(F)(F)F)c5ccccc5n(C)c4=O)cccc23)C(=O)O)(C(F)(F)F)CC1)C(F)(F)F [Compound 518] | > 1000 | > 1000 |
| Cn1c(=O)c(-c2cccc3c(C[C@H](NC(=O)C4(C)CCCN(CC5COC5)C4)C(=O)O)cccc23)c(C(F)(F)F)c2ccccc21 (stereo partly shown) [Compound 520] | > 1000 | 100 to 1000 |
| Cn1c(=O)c(-c2cccc3c(C[C@H](NC(=O)C4(C)CC5(CN(CC(F)(F)F)C5)C4)C(=O)O)cccc23)c(C(F)(F)F)c2ccccc21 [Compound 521] | > 1000 | 100 to 1000 |
| Cn1c(=O)c(-c2cccc3c(C[C@H](NC(=O)C4(C)CCC5(CCOCC5)CC4)C(=O)O)cccc23)c(C(F)(F)F)c2ccccc21 [Compound 522] | > 1000 | 10 to 100 |
| O=C(O)[C@H](Cc1cccc2c(-c3c(C(F)(F)F)ccc4cccnc34)cccc12)NC(=O)C1(C(F)(F)F)CCN(CC(F)(F)F)CC1 [Compound 524] | > 1000 | 10 to 100 |
| O=C(O)[C@H](Cc1cccc2c(-c3cc4ccccc4cn3)cccc12)NC(=O)C1(C(F)(F)F)CCN(C2COC2)CC1 [Compound 525] | > 1000 | 10 to 100 |
| COc1cccc(OC)c1-c1cccc2c(C[C@H](NC(=O)c3c(C)cccc3F)C(=O)O)cccc12 [Compound 526] | > 1000 | 10 to 100 |
| COc1ccnc(OC)c1-c1cccc2c(C[C@H](NC(=O)c3c(C)cccc3F)C(=O)O)cccc12 [Compound 527] | > 1000 | 10 to 100 |
| CN1CCCC1c1cc(-c2cccc3c(C[C@H](NC(=O)C4(C(F)(F)F)CCN(CC(F)(F)F)CC4)C(=O)O)cccc23)c2cnccc2c1 (stereo partly shown) [Compound 532] | > 1000 | 10 to 100 |
| Cn1c(=O)c(-c2cccc3c(C[C@H](NC(=O)C4(C(F)(F)F)CCN(CC5(F)CCC5)CC4)C(=O)O)cccc23)c(C(F)(F)F)c2ccccc21 [Compound 533] | > 1000 | 10 to 100 |
| CCCN1CCC(C(=O)N[C@@H](Cc2cccc3c(-c4c(C(F)(F)F)c5ccccc5n(C)c4=O)cccc23)C(=O)O)(C(F)(F)F)CC1 [Compound 535] | > 1000 | 10 to 100 |
| Cn1c(=O)c(-c2cccc3c(C[C@H](NC(=O)C4(C(F)(F)F)CCN(CCC(F)(F)F)CC4)C(=O)O)cccc23)c(C(F)(F)F)c2ccccc21 [Compound 536] | > 1000 | 10 to 100 |
| Cn1c(=O)c(-c2cccc3c(C[C@H](NC(=O)C4(C(F)(F)F)CCN(CC(F)F)CC4)C(=O)O)cccc23)c(C(F)(F)F)c2cc(C(F)(F)F)ccc21 [Compound 537] | > 1000 | 10 to 100 |

Further lines, results first:

| IC50 (α4β1 integrin) [nM] | IC50 (α4β7 integrin) [nM] | Compound |
| --- | --- | --- |
| > 1000 | 100 to 1000 | COc1ccc2cccnc2c1-c1cccc2c(C[C@H](NC(=O)c3c(F)cccc3F)C(=O)O)cccc12 [Compound 501] |
| 100 to 1000 | < 10 | COCCN1CCC(C(=O)N[C@@H](Cc2cccc3c(-c4c(C(F)(F)F)c5ccccc5n(C)c4=O)cccc23)C(=O)O)(C(F)(F)F)CC1 [Compound 502] |
| 100 to 1000 | 10 to 100 | CCOCCN1CCC(C(=O)N[C@@H](Cc2cccc3c(-c4c(C(F)(F)F)c5ccccc5n(C)c4=O)cccc23)C(=O)O)(C(F)(F)F)CC1 [Compound 503] |
| > 1000 | 10 to 100 | Cn1c(=O)c(-c2cccc3c(C[C@H](NC(=O)C4(C(F)(F)F)CCN(C5CCOCC5)CC4)C(=O)O)cccc23)c(C(F)(F)F)c2ccccc21 [Compound 504] |
| > 1000 | 10 to 100 | Cn1c(=O)c(-c2cccc3c(C[C@H](NC(=O)C4(C(F)(F)F)CCN(C5CCS(=O)(=O)CC5)CC4)C(=O)O)cccc23)c(C(F)(F)F)c2ccccc21 [Compound 505] |
| > 1000 | 100 to 1000 | Cn1c(=O)c(-c2cccc3c(C[C@H](NC(=O)C4(C)CN(C5CCOC(C(F)(F)F)C5)C4)C(=O)O)cccc23)c(C(F)(F)F)c2ccccc21 (stereo partly shown) [Compound 506] |
| > 1000 | 100 to 1000 | Cn1c(=O)c(-c2cccc3c(C[C@H](NC(=O)C4(C(F)(F)F)CCN(C5COC(C(F)(F)F)C5)CC4)C(=O)O)cccc23)c(C(F)(F)F)c2ccccc21 (stereo partly shown) [Compound 507] |
| 100 to 1000 | 10 to 100 | Cn1c(=O)c(-c2cccc3c(C[C@H](NC(=O)C4(C(F)(F)F)CCN(C5CCOC5(C)C)CC4)C(=O)O)cccc23)c(C(F)(F)F)c2ccccc21 (stereo partly shown) [Compound 508] |
| 100 to 1000 | < 10 | CC1OCCC1N1CCC(C(=O)N[C@@H](Cc2cccc3c(-c4c(C(F)(F)F)c5ccccc5n(C)c4=O)cccc23)C(=O)O)(C(F)(F)F)CC1 (stereo partly shown) [Compound 509] |
| 100 to 1000 | < 10 | CC1OCC1N1CCC(C(=O)N[C@@H](Cc2cccc3c(-c4c(C(F)(F)F)c5ccccc5n(C)c4=O)cccc23)C(=O)O)(C(F)(F)F)CC1 (stereo partly shown) [Compound 510] |
| > 1000 | 10 to 100 | Cn1c(=O)c(-c2cccc3c(C[C@H](NC(=O)C4(C(F)(F)F)CCN(C5CCOCC5C(F)(F)F)CC4)C(=O)O)cccc23)c(C(F)(F)F)c2ccccc21 (stereo partly shown) [Compound 511] |
| 100 to 1000 | < 10 | Cn1c(=O)c(-c2cccc3c(C[C@H](NC(=O)C4(C(F)(F)F)CCN(C5COCC5(F)F)CC4)C(=O)O)cccc23)c(C(F)(F)F)c2ccccc21 (stereo partly shown) [Compound 512] |
| > 1000 | 10 to 100 | Cn1c(=O)c(-c2cccc3c(C[C@H](NC(=O)C4(C(F)(F)F)CCN(C5COCC5C(F)(F)F)CC4)C(=O)O)cccc23)c(C(F)(F)F)c2ccccc21 (stereo partly shown) [Compound 513] |
| > 1000 | 10 to 100 | Cn1c(=O)c(-c2cccc3c(C[C@H](NC(=O)C4(C(F)(F)F)CCN(C5CCOC(C(F)(F)F)C5)CC4)C(=O)O)cccc23)c(C(F)(F)F)c2ccccc21 (stereo partly shown) [Compound 514] |
| 100 to 1000 | < 10 | CC(=O)CN1CCC(C(=O)N[C@@H](Cc2cccc3c(-c4c(C(F)(F)F)c5ccccc5n(C)c4=O)cccc23)C(=O)O)(C(F)(F)F)CC1 [Compound 519] |
| 100 to 1000 | < 10 | COc1ccc2ccncc2c1-c1cccc2c(C[C@H](NC(=O)C3(C(F)(F)F)CCN(CC(F)(F)F)CC3)C(=O)O)cccc12 [Compound 523] |
| 100 to 1000 | < 10 | Cn1c(=O)c(-c2cccc3c(C[C@H](NC(=O)C4(C(F)(F)F)CCN(CCF)CC4)C(=O)O)cccc23)c(C(F)(F)F)c2ccccc21 [Compound 530] |
| 100 to 1000 | < 10 | COc1cc(CCN(C)C)cc(OC)c1-c1cccc2c(C[C@H](NC(=O)C3(C(F)(F)F)CCN(CC(F)(F)F)CC3)C(=O)O)cccc12 [Compound 531] |
| 100 to 1000 | 10 to 100 | Cn1c(=O)c(-c2cccc3c(C[C@H](NC(=O)C4(C(F)(F)F)CCN(CC(C)(F)F)CC4)C(=O)O)cccc23)c(C(F)(F)F)c2ccccc21 [Compound 534] |
